According to article PMC8583417, “Evaluation of the Antimicrobial Efficacy of N-Acetyl-L-Cysteine, Rhamnolipids, and Usnic Acid—Novel Approaches to Fight Food-Borne Pathogens” (International Journal of Molecular Sciences, 2021):

How the values were obtained:
L. monocytogenes 149 = assay: CLSM analysis, biofilm prevention; format: cell-based, Listeria monocytogenes; conditions: for proportion of membrane-compromised cells: 24 h; for Thickness (µm) MICBM80 / Thickness (µm) subCBM80: 24 h exposure; for Thickness (µm) MICBM80: substance at its MICBM80, mean ± SD; for Thickness (µm) subCBM80: substance at subinhibitory concentration, mean ± SD
Experimental: (§1) Biofilm prevention and removal analyses were performed using previously determined minimum inhibitory and subinhibitory concentrations for metabolic activity (MICBM80, subCBM80; MICMPB80, subCMPB80) of NAC, RLs, and UA specific for each tested strain. Selected concentrations were used to evaluate the inhibition of biofilm formation (biofilm prevention) and the reduction in previously formed biofilms (biofilm removal) for the same set of microorganisms, with the exception of S. Infantis, which was excluded from the analysis due to its inability to form biofilm in the selected microtiter plate. Biofilm prevention and removal were observed using CLSM with specific staining to distinguish between live and membrane-compromised cells. Images were analyzed to evaluate (i). the total volume of the biomass, (ii). ratios of live and membrane-compromised cells, and (iii). to calculate biofilm volume reduction for individual organisms after the respective treatment types. The total biofilm volume was normalized by the area of the well and expressed as an average biofilm thickness. Complete data are provided in Supplementary Materials (Tables S1–S8).
(§2) For both inhibition and reduction of biofilms, overnight cultures from BHI were diluted in TSB + 1% Glc to reach an absorbance of 0.08 to 0.1 at 625 nm. The inoculum (150 µL) was transferred into wells of the 96-well flat-bottomed Ibidiμ-Plate (Ibidi, Gräfelfing, Germany) and mixed with 150 µL of each of the three tested substances in technical quadruplicates, followed by incubation at 37 °C for 24 h. Simultaneously, the prepared bacterial suspensions were inoculated to an additional microtiter plate (200 µL) and allowed to form biofilm overnight (18 h at 37 °C). After the incubation, the content of the well was drained off, and 200 µL of each of the three tested substances was added to the plate, which was then incubated for an additional 20 h. The used concentrations of the substances represented the subinhibitory and minimum inhibitory concentrations for metabolic activity (subCBM80, MICBM80; subCMPB80, MICMPB80). Both setups contained a positive control of the bacterial growth (inoculum mixed with sterile TSB + 1% Glc medium) and a control monitoring microbial contamination (sterile medium). Non-treated wells were used as a positive control for comparison between non-treated and treated biofilm mass.
(§3) Prior to the imaging, the wells were stained with the LIVE/DEAD® BacLight™ Bacterial Viability Kit (Thermo Fisher Scientific, MA, USA) following the manufacturer’s guidelines and Drago et al.. Briefly, equal volumes of SYTO® 9 and propidium iodide were combined with the sterile distilled water to reach a final concentration of […]. The biofilm mass was stained using 300 µL of the staining solution per well followed by incubation at 37 °C in the dark for 15 min. Stained wells were washed once with sterile distilled water, which was then added to each well (300 µL). Images were acquired with an inverted Leica SP5 CLSM using a 1.25× dry objective (WD 3.7 mm, Z-resolution 27 µm, up to 24 Z-stacks per well) to visualize an entire well. Samples were kept at the cultivation conditions (37 °C, 5% CO2, 90% humidity) with an OkoLabs stage top environmental chamber (Oko Labs, PA, USA). Fluorophore excitation lasers and emission bandwidths were as follows: SYTO® 9 (ex/em 485/498 nm) 488 nm excitation, 495 to 550 nm emission collection; propidium iodide (ex/em 535/617 nm) 561 nm excitation, 595 to 650 nm emission collection. The laser beam scanned the visual field at a frequency of 600 Hz. The wells were captured in snapshots of 1024 × 1024 pixels representing the area of 153.76 mm^2.
(§4) All collected images were statistically evaluated to quantify biovolume utilizing the surface estimation procedure described in Parker et al.. […]

L. monocytogenes 164 = assay: CLSM analysis, biofilm prevention; format: cell-based, Listeria monocytogenes; conditions: for Thickness (µm) MICBM80 / Thickness (µm) subCBM80: 24 h exposure; for Thickness (µm) MICBM80: substance at its MICBM80, mean ± SD; for Thickness (µm) subCBM80: substance at subinhibitory concentration, mean ± SD
Experimental: as §1, §2, §3, §4

[1] = test system: S. Enteritidis ATCC 13076; assay: MIC for further growth of biofilm cells, preformed biofilm (A625nm); format: cell-based, Salmonella enterica Enteritidis; conditions: for MICBC80: ≥80% inhibition, 18 h preformed biofilm, 20 h with substance
Experimental: (§5) Ten concentrations of NAC, RLs, and UA were tested to determine the minimum inhibitory concentration for planktonic growth, and subsequently, the six highest concentrations were applied on preformed biofilms to evaluate the biofilm eradication ability of the compounds. MIC was defined as the lowest substance concentration able to inhibit at least 80% of microbial growth (MICPC80 for planktonic cells, MICBC80 for further growth of biofilm cells), inhibit 80% of metabolic activity (MICBM80 for biofilm metabolic activity, MICMPB80 for metabolic activity of preformed biofilm), prevent biofilm formation by at least 80% (MICBF80 for biofilm formation), or reduce a preformed biofilm by at least 80% (MICBR80 for biofilm reduction). The results of MICs are summarized in Table 1 (planktonic cells) and Table 2 (biofilm-associated cells).
The determination of MICs was performed according to Chlumsky et al.. […] To evaluate planktonic cells growth (MICPC80) and further growth of biofilm cells (MICBC80), the optical density of the content of the microtiter plates was measured spectrophotometrically at 625 nm before and after 24 h (for biofilm formation) of cultivation or before and after additional 20 h incubation with the tested compound (for preformed biofilm). […] To evaluate the inhibition of biofilm formation (MICBF80) and reduction in preformed biofilms (MICBR80), biomass was quantified using crystal violet staining, and its metabolic activity (MICBM80 and MICMPB80) was estimated by using the MTT (thiazyl tetrazolium bromide, Sigma-Aldrich, USA) reduction assay, both measured spectrophotometrically at 595 nm.
All inhibitions were calculated using the formula of Chlumsky et al. below (Equation (1)):(1) A625(595)nm inhibition (%)=A625(595)nm (control) – A625(595)nm(natural substance)/A625(595)nm (control)× 100 where A625(595)nm (control) is the absorbance of bacterial suspension/biofilm itself, and A625(595)nm(natural substance) is the absorbance of the bacterial suspension/biofilm with the added natural substance (NAC, RLs, and UA). […]

E. coli 683/17 = assay: MIC for metabolic activity of preformed biofilm (MTT reduction assay); format: cell-based, Escherichia coli; conditions: for MICMPB80: ≥80% inhibition, 20 h with substance
Experimental: as §5
(§6) The determination of MICs was performed according to Chlumsky et al.. Briefly, 96-well flat-bottomed microtiter plates were inoculated with 75 µL (for biofilm formation) or 100 µL (for preformed biofilm) of bacterial suspension (A625nm 0.08 to 0.1) in technical triplicates and were then carefully mixed with the dilution series of the test substances (24 h cultivation at 25 °C for S. Infantis, 37 °C for other strains) or were directly cultivated to preform biofilms (18 h). For a positive control of bacterial growth, the inoculum was mixed with a pure sterile medium. Furthermore, the sterile medium was included in the plate as a marker of potential microbial contamination. To evaluate planktonic cells growth (MICPC80) and further growth of biofilm cells (MICBC80), the optical density of the content of the microtiter plates was measured spectrophotometrically at 625 nm before and after 24 h (for biofilm formation) of cultivation or before and after additional 20 h incubation with the tested compound (for preformed biofilm). The difference of A625nm was considered as a measure of the ability of cells to grow in the presence of the tested substances. To evaluate the inhibition of biofilm formation (MICBF80) and reduction in preformed biofilms (MICBR80), biomass was quantified using crystal violet staining, and its metabolic activity (MICBM80 and MICMPB80) was estimated by using the MTT (thiazyl tetrazolium bromide, Sigma-Aldrich, USA) reduction assay, both measured spectrophotometrically at 595 nm.
(§7) All inhibitions were calculated using the formula of Chlumsky et al. below (Equation (1)):(1) A625(595)nm inhibition (%)=A625(595)nm (control) – A625(595)nm(natural substance)/A625(595)nm (control)× 100 where A625(595)nm (control) is the absorbance of bacterial suspension/biofilm itself, and A625(595)nm(natural substance) is the absorbance of the bacterial suspension/biofilm with the added natural substance (NAC, RLs, and UA).
(§8) When the minimum inhibitory concentration could not be determined, the MIC was established as >the highest tested concentration for NAC, RLs, and UA.

E. coli 693/17 = assay: as above; format: cell-based, Escherichia coli
Experimental: as §5, §6, §7, §8

Structure (SMILES) | proportion of membrane-compromised cells (L. monocytogenes 149; MIC) | Thickness (µm) MICBM80 (L. monocytogenes 149) | Thickness (µm) subCBM80 (L. monocytogenes 149) | Thickness (µm) MICBM80 (L. monocytogenes 164) | Thickness (µm) subCBM80 (L. monocytogenes 164) | maximal achieved inhibition (MICBC80 not reached) ([1]; within tested concentrations) | MICBC80 [1] | maximal achieved inhibition (MICMPB80 not reached) (E. coli 683/17; within tested concentrations) | MICMPB80 (E. coli 683/17) | maximal achieved inhibition (MICMPB80 not reached) (E. coli 693/17; within tested concentrations) | proportion of membrane-compromised cells (L. monocytogenes 149; MIC and subinhibitory concentration) | proportion of membrane-compromised cells, increase (L. monocytogenes 164; 24 h, MIC) | MICMPB80 (E. coli 693/17; ≥80% inhibition, 20 h with substance)
CC(=O)c1c(O)c(C)c(O)c2c1OC1=CC(=O)C(C(C)=O)C(=O)C12C (single isomer, unassigned; (+)) [UA, (+)-usnic acid] | up to 15% | 175 ± 79.4 µm | 268 ± 68.9 µm | 325 ± 70.5 µm | 417 ± 40.4 µm | 51% | > 31.3 µg/mL | 45% | > 31.3 µg/mL | 20% |  |  | 
CC(=O)N[C@@H](CS)C(=O)O [NAC, N-Acetyl-L-cysteine] |  | 86.5 ± 2.6 µm | 238 ± 32 µm | 158 ± 93.2 µm | 288 ± 40.6 µm |  | 6250 µg/mL |  | 12,500 µg/mL |  | up to 25% | about 45% | 12,500 µg/mL
